Measured values reported in patent publication US8680288B2, “Pyridin-2yl sulfanyl acid esters and process for the preparation thereof” (Council of Scientific & Industrial Research, priority 2010, dated 2014).
Entries after “also recorded” stand apart in the source; their conditions may differ. Like-named read-outs stand apart in the source and are kept apart here.

What was measured:
acute lung Injury model = conditions: literature reference; cited from earlier work
[1] = tested on: human umbilical vein endothelial cell (HUVEC); assay: Cell viability (MTT) assay on endothelial cells; assay type: cell-based; conditions: Concentration of compounds where >95% cells are viable
Protocol: (§1) Primary endothelial cells were isolated from human umbilical cord using mild trypsinization (Kumar, S., Arya, P., Mukherjee, C., Singh, B. K., Singh, N., Parmar, V. S., Prasad, A. K., Ghosh, B. Novel Aromatic Ester from Piper longum and Its Analogues Inhibit Expression of Cell Adhesion Molecules on Endothelial Cells. Biochemistry. 2005, 44, 15944-15952). The cells were grown in M199 medium (Sigma, USA) supplemented with 15% heat inactivated fetal calf serum (Biological Industries, Israel), 2 mM L-glutamine (Sigma, USA), 100 units/ml penicillin (Sigma, USA), 100 μg/ml streptomycin (Sigma, USA), 0.25 μg/ml amphotericin B (Sigma, USA), endothelial cell growth factor (50 μg/ml) (Sigma, USA). At confluence, the cells were subcultured using 0.05% trypsin-0.01 M EDTA solution and were used between passages three to four.
The cytotoxicity of these compounds was analyzed by colorimetric MTT (methylthiazolydiphenyl-tetrazolium bromide, Sigma, USA) assay as described (Kumar S et al, 2005). Briefly, endothelial cells were treated with DMSO alone (0.25%, as vehicle) or with different concentrations of compounds for 24 hrs. Four hrs before the end of incubation, medium was removed and 100 μl MTT (5 mg/ml in serum free medium) was added to each well. The MTT was removed after 4 hrs, cells were washed out with PBS (phosphate buffered saline, pH 7.4), and 100 μl DMSO was added to each well to dissolve water insoluble MTT-formazan crystals. Absorbance was recorded at 570 nm in an ELISA reader (Bio-Rad, Model 680, USA). All experiments were performed at least 3 times in triplicate wells.

[2] = tested on: ICAM-1 (Intercellular cell adhesion molecule-1); assay: Cell-ELISA for measurement of LPS-induced ICAM-1 expression on endothelial cells; assay type: cell-based; conditions: LPS (1 μg/ml) 16 hrs, human endothelial cells, read-out: ICAM-1 inhibition IC50
Protocol: as §1
Cell-ELISA was used for measuring the expression of ICAM-1 on surface of endothelial cells (Kumar S et al, 2005) Endothelial cells were incubated with or without the test compounds at desired concentrations for the required period, followed by treatment with LPS (1 μg/ml) (BD, USA) for 16 hrs for ICAM-1 expression. The cells were fixed with 1.0% glutaraldehyde (Sigma, USA). Non-specific binding of antibody was blocked by using skimmed milk (3.0% in PBS). Cells were incubated overnight at 4° C. with anti-ICAM-1 mAb (BD, USA), diluted in blocking buffer, the cells were further washed with PBS and incubated with peroxidase-conjugated goat anti-mouse secondary antibody (Sigma, USA). After washings, cells were exposed to the peroxidase substrate (o-phenylenediamine dihydrochloride 40 mg/100 ml in citrate phosphate buffer, pH 4.5). Reaction was stopped by the addition of 2 N sulfuric acid and absorbance at 490 nm was measured using microplate reader (Spectramax 190, Molecular Devices, USA).

[3] = tested on: adhesion of neutrophils onto human umbilical vein endothelial cells (HUVECs); assay: Neutrophil adhesion assay on LPS-induced endothelial cells (static conditions); assay type: cell-based; conditions: LPS (1 μg/ml) 6 hrs; for IC50: HUVEC, read-out: Neutrophil Adhesion Inhibition IC50
Protocol: as §1
Neutrophils were isolated from peripheral blood of healthy individuals (Kumar S et al, 2005). Blood was collected in heparin solution (20 U/ml) and erythrocytes were removed by sedimentation against 6% dextran solution. Plasma, rich in white blood cells, was layered over Ficoll-Hypaque solution (Sigma, USA), followed by centrifugation (300 g for 20 min, 20° C.). The top saline layer and the Ficoll-Hypaque layer were aspirated leaving neutrophils/RBC pellet. The residual red blood cells were removed by hypotonic lysis. Isolated cells were washed with PBS and resuspended in PBS containing 5 mM glucose, 1 mM CaCl2, and 1 mM MgCl2 at a final concentration of 6×10^5 cells/ml.
Neutrophil adhesion assay was performed under static conditions as described previously (Kumar S et al, 2005). Briefly, endothelial cells plated in 96-well culture plates were incubated with or without RS—Z at desired concentrations for 2 hrs, followed by induction with LPS (1 μg/ml) for 6 hrs. Endothelial monolayers were washed with PBS and neutrophils (6×10^4/well) were added over it and were allowed to adhere for 1 hr at 37° C. The non-adherent neutrophils were washed with PBS and neutrophils bound to endothelial cells were assayed by adding a substrate solution consisting of o-phenylenediamine dihydrochloride (40 mg/100 ml in citrate phosphate buffer, pH 4.5), 0.1% cetrimethyl ammonium bromide, and 3-amino-1,2,4 triazole (1 mM). The absorbance was read at 490 nm using an automated microplate reader (Model 680, Bio-Rad, USA).

[4] = tested on: LPS induced acute lung injury; assay: LPS aerosol induced acute lung injury model in mice (BALF cell counts, lung injury score); assay type: in vivo; conditions: for Neutrophil count in the BALF / neutrophil influx in the lungs / Lung injury score / LPS-induced lung injury: post-treatment i.p. 0.1, 1.0 and 10 mg/kg; for Neutrophil count in the BALF / neutrophil influx in the lungs: FIG. 2B; for Lung injury score / LPS-induced lung injury: FIG. 3
Protocol: BALB/c male mice 10 weeks old were randomly divided into 5 groups with 6 mice in each group.
Group 1: saline challenged/vehicle (0.25% CMC) treated
Group 2: LPS challenged/vehicle treated
Group 3: LPS challenged/RS—Z (0.1 mg/kg in 0.25% CMC) treated
Group 4: LPS challenged/RS—Z (1 mg/kg in 0.25% CMC) treated
Group 5: LPS challenged/RS—Z (10 mg/kg in 0.25% CMC) treated
Mice in Groups 2, 3, 4 and 5 were challenged with an aerosol of LPS (E. coli strain 026:B6) at a concentration of 300 μg/ml in normal saline for 30 minutes. Mice were placed in a Plexiglas chamber (20×20×10 cm^3) and exposed to an aerosol generated from a nebulizer (Omtron model, USA) with an airflow rate of 9 L/min. Group 1(Control) mice were challenged with saline alone.
Mice were treated with either vehicle or RS—Z thirty minutes after the LPS challenge. Mice in group 1 (control) and Group 2 (LPS challenged) were vehicle (0.25% CMC) treated intraperitoneally (i.p.). Mice in Group 3 were treated with RS—Z at a dose of 0.1 mg/kg body weight by i.p. injection. Mice in Group 4 were treated with RS—Z at a dose of 1.0 mg/kg body weight by i.p. injection. Group 5 were treated with RS—Z at a dose of 10 mg/kg body weight by i.p. injection.
Mice were sacrificed three hrs after the LPS challenge using an overdose of sodium pentothal (100 mg/kg, i.p.). The trachea were cannulated and 0.5 ml of PBS (phosphate buffered saline) was used for lavage at a time and this step was repeated three times. About 1.5 ml of BAL fluid was recovered per mouse. The BAL fluid was centrifuged (400×g, 4° C., 6 min) and the supernatant was kept at −70° C. until analyzed for biochemical parameters. The BAL cells were washed three times with PBS and the pellet was resuspended in 200 μl cold PBS. For total cell counts, BAL cell suspension was diluted 1:20 in PBS and cells were counted in a hemocytometer. For differential counts, BALF cell suspension smear was made on glass slides followed by Leishman's stain. The cells were identified and counted by standard methodology. At least 300 cell (all types) per slide were counted and the percentage of neutrophils was calculated.
The excised lung portions from all the groups was fixed in 10% Buffered formalin. The fixed tissue was embedded in paraffin, sectioned into 4 μm and stained with haematoxylin-eosin for observation under the light microscope. The injury was scored with a semi-quantitative grading system based on the structure changes edema, alveolar and interstitial hemorrhage and inflammatory cells sequestration (Matthay M A, Zimmerman G A, Esmon C, Bhattacharya J, Caller B, et al. (2003) Future research directions in acute lung injury: Summary of a National Heart, Lung, and Blood Institute working group. Am J Respir Crit. Care Med 167: 1027-1035). Semi-quantitative grading system was a 0-to-4 point grading system: 0=No injury, 1=25% injury in a light microscope field, 2=50% injury in a light microscope field, 3=75% injury in a light microscope field, 4= almost 100% injury in a light microscope field. Five light microscopic fields were analyzed for a particular pathological specimen to determine mice lung injury score.

[5] = reference compound, value in mM
[6] = vs. LPS aerosol/vehicle IP, listed as formula 1a

In the case of `Cc1c(C)c2c(c(C)c1O)CCC(C)(C[C@H]1O[C@H](CO)[C@@H](O)[C@H](O)[C@H]1O)O2` (stereo partly drawn) [Water-soluble Vitamin E derivative, (α-D-glucopyranosyl)methyl-2,5,7,8-(tetramethyl)chroman-6-ol], the “Efficacious Dose” value (acute lung Injury model) is listed as 10 mg/kg.

For `O=C(CCSc1ccccn1)OC1CCCCC1` [RS-21, 3-(2-pyridylthio)propionic acid cyclohexyl ester], the Max. tolerable dose ([1]; 24 hrs, MTT) was 0.25 mM, the IC50 [2] was 0.135 ± 0.00082 mM and the “Neutrophil Adhesion Inhibition IC50” value [3] was “not significant”.

In the case of `CCCCOC(=O)CCSc1ccccn1` [RS-20, 3-(2-pyridylthio)propionic acid butyl ester], the Max. tolerable dose ([1]; 24 hrs, MTT) is reported as 0.5 mM, the IC50 [2] is reported as 0.079 ± 0.00073 mM and the IC50 [3] is reported as 85 ± 0.94 µM.

For `COc1ccc(C2CNC(=O)C2)cc1OC1CCCC1` (stereo not drawn) [Rolipram], the “Efficacious Dose” value (acute lung Injury model) is listed as 5 mg/kg.

With `CCCCCOC(=O)CCCC(Sc1ccccn1)C(=O)OC` (stereo not drawn) [AD—Z, 2-(2-pyridylthio)-hexanedioic acid-1-methyl ester 6-pentyl ester] the Max. tolerable dose ([1]; 24 hrs, MTT) was 0.25 mM, the IC50 [2] was 0.085 ± 0.00152 mM and the “Neutrophil Adhesion Inhibition IC50” value [3] was “not significant”.

For `COC(=O)C(CCCC(=O)OC1CCCCC1)Sc1ccccn1` (stereo not drawn) [AD-21, 2-(2-pyridylthio)-hexanedioic acid 6-cyclohexyl ester 1-methyl ester], the Max. tolerable dose ([1]; 24 hrs, MTT) was 0.25 mM, the IC50 [2] was 0.117 ± 0.00092 mM and the “Neutrophil Adhesion Inhibition IC50” value [3] was “not significant”.

In the case of `CC(=O)N[C@@H](CS)C(=O)O` [NAC, N-acetyl cysteine, reference compound], the Max. tolerable dose [1, 5] is given as 20 mM, the “Efficacious Dose” value (acute lung Injury model) is given as 150 mg/kg and the IC50 [2, 5] is given as 6.68 mM. The “Neutrophil Adhesion Inhibition IC50” value [3] was “not significant”.

With `CCCOC(=O)CCCC(Sc1ccccn1)C(=O)OC` (stereo not drawn) [AD-20, 2-(2-pyridylthio)-hexanedioic acid 1-methyl ester 6-propyl ester] the Max. tolerable dose ([1]; 24 hrs, MTT) was 0.25 mM, the IC50 [2] was 0.178 ± 0.00081 mM and the “Neutrophil Adhesion Inhibition IC50” value [3] was “not significant”.

For `CCOC(=O)CCCCCCCC(Sc1ccccn1)C(=O)OC` (stereo not drawn) [AD-32, 2-(2-pyridylthio)-decanedioic acid-10-ethyl ester 1-methyl ester], the Max. tolerable dose ([1]; 24 hrs, MTT) was 0.25 mM, the IC50 [2] was 0.1 ± 0.00096 mM and the “Neutrophil Adhesion Inhibition IC50” value [3] was “not significant”.

In the case of `CCCCCOC(=O)CCSc1ccccn1` [RS—Z, 3-(2-pyridylthio)propionic acid pentyl ester], the “Lung injury caused by bacterial polysaccharide challenge” value ([4]; 10 mg/kg body weight) is reported as “significantly reduced”, the Pulmonary neutrophil infiltration ([4]; 10 mg/kg body weight intraperitoneally) is reported as “significantly alleviate” and the “Efficacious Dose” value ([4]; acute lung injury model, mice, i.p.) is reported as 10 mg/kg. The “Total cell counts in the BALF” value ([4]; post-treatment IP 0.1, 1, 10 mg/kg, vs. LPS aerosol/vehicle IP, FIG. 2A) was “dose-dependently reduced”, the “Neutrophil count in the BALF / neutrophil influx in the lungs” value ([4]; vs. LPS aerosol/vehicle IP) was “reduction of the neutrophil influx; also recorded: dose-dependently reduced” and the “Neutrophil count in the BALF / neutrophil influx in the lungs” value [4, 6] was “Reduction of the neutrophil influx”. For the same compound, the “Lung injury score / LPS-induced lung injury” value ([4]; vs. LPS aerosol/vehicle IP) was “attenuation of the LPS-induced lung injury; also recorded: dose-dependently reduced”, the “Lung injury score / LPS-induced lung injury” value [4, 6] was “Attenuation of the LPS-induced lung injury” and the Max. tolerable dose ([1]; 24 hrs, MTT) was 0.5 mM. For the same compound, the IC50 [2] was 0.05 mM and the IC50 [3] was 61 µM.

`CCOC(=O)CCCCCCSc1ccccn1` [RS-32, 7-(2-pyridylthio)heptanoic acid ethyl ester] showed a Max. tolerable dose ([1]; 24 hrs, MTT) of 0.5 mM, an IC50 [2] of 0.097 ± 0.00063 mM and an IC50 [3] of 94 ± 0.92 µM.

For `O=C1CCC(N2C(=O)c3ccccc3C2=O)C(=O)N1` (stereo not drawn) [Thalidomide, α-N-phthalimidoglutarimide], the “Efficacious Dose” value (acute lung Injury model) is listed as 100 mg/kg.
